Measured values as given in patent US20120165223A1 (priority 2006, published 2012).

Tested on: Enterococcus spp.
Experiment: Composition of flora in feces of HFA mice: Enterococcus spp.
Assay type: in vivo
Conditions: 4th and 27th day from the medication, 500 μg/Ml in drinking water

colistin sulfate
Enterococcus spp. in feces: decreased in similar way to the control group
